From ChEMBL document CHEMBL4342486, “An Alkyne-functionalized Arginine for Solid-Phase Synthesis Enabling "Bioorthogonal" Peptide Conjugation” (ACS Med Chem Lett, 2020)

How the values were obtained:
[1] = target: Neurotensin receptor type 1 (Homo sapiens, UniProt P30989); test: Displacement of [3H]UR-MK300 from human NTS1R expressed in human HT-29 cells incubated for 2 hrs by scintillation counting method; format: cell-based
[2] = Chemical stability of compound in PBS buffer at pH 7.4 at 100 uM incubated for 48 hrs by RP-HPLC analysis; format: physicochemical; conditions: pH 7.4, 48 h
[3] = target: Neuropeptide Y receptor type 4 (Homo sapiens, UniProt P50391); test: Displacement of [3H]UR-KK200 from human Y4R expressed in CHO cells incubated for 90 mins by microbeta scintillation counting method; format: cell-based
Chain of Neuropeptide Y receptor type 4 (P50391 whole entry): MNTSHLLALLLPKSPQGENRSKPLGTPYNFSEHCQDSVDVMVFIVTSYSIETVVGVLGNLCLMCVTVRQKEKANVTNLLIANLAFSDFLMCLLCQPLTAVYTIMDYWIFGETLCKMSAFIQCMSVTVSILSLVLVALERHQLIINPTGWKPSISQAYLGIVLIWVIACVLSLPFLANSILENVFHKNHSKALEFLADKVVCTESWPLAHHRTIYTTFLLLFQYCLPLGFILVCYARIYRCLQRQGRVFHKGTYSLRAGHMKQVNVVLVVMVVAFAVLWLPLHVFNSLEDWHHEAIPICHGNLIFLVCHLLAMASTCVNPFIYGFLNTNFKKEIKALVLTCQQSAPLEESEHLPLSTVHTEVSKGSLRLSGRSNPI

Chain of Neurotensin receptor type 1 (P30989 whole entry): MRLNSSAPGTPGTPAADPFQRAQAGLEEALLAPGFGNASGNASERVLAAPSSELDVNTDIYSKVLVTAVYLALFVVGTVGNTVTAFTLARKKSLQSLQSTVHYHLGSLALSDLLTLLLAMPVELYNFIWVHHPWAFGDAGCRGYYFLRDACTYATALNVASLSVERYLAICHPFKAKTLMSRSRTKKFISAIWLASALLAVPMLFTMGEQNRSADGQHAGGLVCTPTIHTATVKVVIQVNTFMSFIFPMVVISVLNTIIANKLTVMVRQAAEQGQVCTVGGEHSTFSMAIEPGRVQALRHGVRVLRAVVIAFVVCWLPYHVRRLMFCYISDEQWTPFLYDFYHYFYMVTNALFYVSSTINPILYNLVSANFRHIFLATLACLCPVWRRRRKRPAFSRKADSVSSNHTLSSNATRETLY

Structure (SMILES) | Ki ([1]; read-out: Ki) [nM] | Ki ([1]; read-out: pKi (converted)) [nM] | Stability [2] | Ki [3] [nM]
C#CCCCCNC(=O)NC(=N)NCCC[C@H](NC(=O)[C@H](CCCNC(=N)N)NC)C(=O)N1CCC[C@H]1C(=O)N[C@@H](Cc1ccc(O)cc1)C(=O)N[C@H](C(=O)N[C@@H](CC(C)C)C(=O)O)C(C)(C)C | 9.6 | 9.33 |  | 
C#CCCCCNC(=O)NC(=N)NCCC[C@H](N)C(=O)N[C@@H](CCCNC(=N)N)C(=O)N1CCC[C@H]1C(=O)N[C@@H](Cc1ccc(O)cc1)C(=O)N[C@H](C(=O)N[C@@H](CC(C)C)C(=O)O)C(C)(C)C | 4.2 | 4.07 |  | 
CC(C)C[C@H](NC(=O)[C@@H](NC(=O)[C@H](Cc1ccc(O)cc1)NC(=O)[C@@H]1CCCN1C(=O)[C@H](CCCNC(=N)N)NC(=O)[C@@H](N)CCCNC(=N)NC(=O)NCCCCc1cn(CCCNC(=O)CCCCCN2/C(=C/C=C/C=C/C3=[N+](C)c4ccc5c(S(=O)(=O)[O-])cc(S(=O)(=O)O)cc5c4C3(C)C)C(C)(C)c3c2ccc2c(S(=O)(=O)O)cc(S(=O)(=O)O)cc32)nn1)C(C)(C)C)C(=O)O | 50 |  | Stable | 
CC(=O)N[C@@H](CCCNC(=N)NC(=O)NCCCCc1cn(CCCNC(=O)CCCCCN2/C(=C/C=C/C=C/C3=[N+](C)c4ccc5c(S(=O)(=O)[O-])cc(S(=O)(=O)O)cc5c4C3(C)C)C(C)(C)c3c2ccc2c(S(=O)(=O)O)cc(S(=O)(=O)O)cc32)nn1)C(=O)N[C@@H](Cc1ccc(O)cc1)C(=O)N[C@@H](CCCNC(=N)N)C(=O)N[C@@H](CC(C)C)C(=O)N[C@@H](CCCNC(=N)N)C(=O)N[C@@H](Cc1ccc(O)cc1)C(N)=O |  |  | Stable | 33
C#CCCCCNC(=O)NC(=N)NCCC[C@H](NC(=O)[C@@H](N)CCCNC(=N)N)C(=O)N1CCC[C@H]1C(=O)N[C@@H](Cc1ccc(O)cc1)C(=O)N[C@H](C(=O)N[C@@H](CC(C)C)C(=O)O)C(C)(C)C | 9.4 |  |  | 
